Test results published in ChEMBL document CHEMBL1909569 (Bioorg Med Chem Lett, 2011).

Tests used:
[1] = (§1) Inhibition of Mycobacterium tuberculosis expressing RNA polymerase RpoB S450L mutant after 10 mins using ribo green by rolling circle transcription assay
[2] = tested on: Mycobacterium tuberculosis; assay: as §1
[3] = tested on: Mycobacterium tuberculosis; assay: Ratio of compound MIC90 to Rifamycin S MIC90 for Mycobacterium tuberculosis RNA polymerase RpoB S450L mutant
[4] = tested on: Mycobacterium tuberculosis; assay: Ratio of compound MIC90 to Rifampin S MIC90 for Mycobacterium tuberculosis RNA polymerase RpoB S450L mutant

| Compound | IC50 [1] | logIC50 [2] | Ratio [3] | Ratio IC50 [4] |
| --- | --- | --- | --- | --- |
| CO[C@H]1/C=C/O[C@@]2(C)Oc3c(C)c(SC)c4c(c3C2=O)C(=O)C=C(NC(=O)/C(C)=C\C=C\[C@H](C)[C@H](O)[C@@H](C)[C@@H](O)[C@@H](C)[C@H](OC(C)=O)[C@@H]1C)C4=O | 37.5 µM | 1.57 |  |  |
| CO[C@H]1/C=C/O[C@@]2(C)Oc3c(C)c(OS(=O)(=O)c4ccc(C)cc4)c4c(c3C2=O)C(=O)C=C(NC(=O)/C(C)=C\C=C\[C@H](C)[C@H](O)[C@@H](C)[C@@H](O)[C@@H](C)[C@H](OC(C)=O)[C@@H]1C)C4=O | 982 µM | 2.99 | 5 |  |
| CO[C@H]1/C=C/O[C@@]2(C)Oc3c(C)c(O)c4c(c3C2=O)C(=O)C=C(NC(=O)/C(C)=C\C=C\[C@H](C)[C@H](O)[C@@H](C)[C@@H](O)[C@@H](C)[C@H](OC(C)=O)[C@@H]1C)C4=O [RIFAMYCIN S] | 36 µM | 1.56 |  |  |
| CO[C@H]1/C=C/O[C@@]2(C)Oc3c(C)c(N(C)C)c4c(c3C2=O)C(=O)C=C(NC(=O)/C(C)=C\C=C\[C@H](C)[C@H](O)[C@@H](C)[C@@H](O)[C@@H](C)[C@H](OC(C)=O)[C@@H]1C)C4=O | 270 µM | 2.43 |  | 3 |
| CO[C@H]1/C=C/O[C@@]2(C)Oc3c(c4c5c(nn(CCO)c5c3C)C(=C(/C=N/N3CCN(C)CC3)C4=O)NC(=O)/C(C)=C\C=C\[C@H](C)[C@H](O)[C@@H](C)[C@@H](O)[C@@H](C)[C@H](OC(C)=O)[C@@H]1C)C2=O | 29.9 µM | 1.48 |  |  |
| CO[C@H]1/C=C/O[C@@]2(C)Oc3c(C)c(O)c4c(c3C2=O)C(=O)C(/C=N/N2CCN(C)CC2)=C(NC(=O)/C(C)=C\C=C\[C@H](C)[C@H](O)[C@@H](C)[C@@H](O)[C@@H](C)[C@H](OC(C)=O)[C@@H]1C)C4=O [RIFAMPIN S] | 46.5 µM | 1.67 |  |  |
| CO[C@H]1/C=C/O[C@@]2(C)Oc3c(C)c(NC4CCCCCC4)c4c(c3C2=O)C(=O)C=C(NC(=O)/C(C)=C\C=C\[C@H](C)[C@H](O)[C@@H](C)[C@@H](O)[C@@H](C)[C@H](OC(C)=O)[C@@H]1C)C4=O | 127 µM | 2.1 |  | 3 |
| CO[C@H]1/C=C/O[C@@]2(C)Oc3c(C)c(N)c4c(c3C2=O)C(=O)C=C(NC(=O)/C(C)=C\C=C\[C@H](C)[C@H](O)[C@@H](C)[C@@H](O)[C@@H](C)[C@H](OC(C)=O)[C@@H]1C)C4=O | 186 µM | 2.27 |  | 3 |
